The source made the active and inactive calls. No cut-off for these calls is given here.

Holding throughout (format): functional, cell-based
In experiment [1] the test system is Cerebral cortex neuron. The experiment in a line: Neuroprotective activity in Sprague-Dawley rat primary cortical neurons assessed as inhibition of glutamate-induced toxicity by measuring cell viability at 10 uM by trypan blue exclusion assay.
Experiment [2] deals with Cerebral cortex neuron. As to the kind of experiment: Neuroprotective activity in Sprague-Dawley rat primary cortical neurons assessed as inhibition of amyloid beta 1 to 42-induced toxicity by measuring cell viability at 0.1 uM by trypan blue exclusion assay.
The test system of experiment [3] is Cerebral cortex neuron. The experiment in a line: Neuroprotective activity in Sprague-Dawley rat primary cortical neurons assessed as inhibition of glutamate-induced toxicity by measuring cell viability at 0.01 uM by trypan blue exclusion assay.
Experiment [4] relates to Cerebral cortex neuron. As to the kind of experiment: Neuroprotective activity in Sprague-Dawley rat primary cortical neurons assessed as inhibition of amyloid beta 1 to 42-induced toxicity by measuring cell viability at 100 uM by trypan blue exclusion assay.

For `CC12CC3CC(C)(C1)CC(N)(C3)C2`, the result in the experiment on Cerebral cortex neuron [1] was Active.
Consider `CN1C(=O)CC[C@H]1c1cccnc1`, for which the result in the experiment on Cerebral cortex neuron [2] was Active.
On to `CN1CCC[C@H]1c1ccc[n+]([O-])c1`, for which the result in the experiment on Cerebral cortex neuron [3] was Active.
Take `C[N+]1=CCC[C@H]1c1cccnc1`: the result in the experiment on Cerebral cortex neuron [4] was Active.
As for `O=C1CCC(c2cccnc2)N1` (stereo unspecified), the outcome in the experiment with Cerebral cortex neuron [4] was Active.
For `CN1CCC[C@H]1c1cccnc1`, the outcome in the experiment with Cerebral cortex neuron [2] was Active.

Values taken from ChEMBL document CHEMBL3124939, “Evaluation of nicotine and cotinine analogs as potential neuroprotective agents for Alzheimer's disease” (2014).
